Results: PubChem BioAssay (NCI)
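The compound was tested at five concentrations on cells cultured in 96-well plates, with a 48-hour exposure period. At the GI50, growth is halved. Definition used: TGI = concentration required for complete inhibition of growth.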

Experiments:
Assay in all cases: growth of human tumour cells (NCI), 48 h
CCRF-CEM leukemia = tested on: CCRF-CEM leukemia
NCI-H226 lung = tested on: NCI-H226 lung
M14 melanoma = tested on: M14 melanoma
MALME-3M melanoma = tested on: MALME-3M melanoma
UACC-62 melanoma = tested on: UACC-62 melanoma
HOP-92 NSCLC = tested on: HOP-92 NSCLC
SF-268 CNS = tested on: SF-268 CNS
HCT-116 colon = tested on: HCT-116 colon
OVCAR-8 ovarian = tested on: OVCAR-8 ovarian
CAKI-1 renal = tested on: CAKI-1 renal

CC(CC(=O)Nc1ccc(NC(=O)CC(C)N=NC(N)=O)cc1)N=NC(N)=O (stereo not given)
TGI (CCRF-CEM leukemia): > 100 µM
TGI (NCI-H226 lung): > 100 µM
TGI (M14 melanoma): > 100 µM
TGI (MALME-3M melanoma): > 100 µM
TGI (UACC-62 melanoma): > 100 µM
TGI (HOP-92 NSCLC): > 100 µM
TGI (SF-268 CNS): > 100 µM
TGI (HCT-116 colon): > 100 µM
TGI (OVCAR-8 ovarian): > 100 µM
TGI (CAKI-1 renal): > 100 µM

CNc1nc(-c2ccc3c(N)n[nH]c3c2)cc(N2C[C@@H](C(=O)NC3CCCCC3)CC[C@H]2C)n1
GI50 (CCRF-CEM leukemia): 1.78 µM
TGI (CCRF-CEM leukemia): > 48.1 µM
GI50 (NCI-H226 lung): 6.74 µM
TGI (NCI-H226 lung): 22.7 µM
GI50 (M14 melanoma): 3.02 µM
TGI (M14 melanoma): 20.1 µM
GI50 (MALME-3M melanoma): 0.302 µM
TGI (MALME-3M melanoma): 10.7 µM
GI50 (UACC-62 melanoma): 0.858 µM
TGI (UACC-62 melanoma): 16.3 µM
GI50 (HOP-92 NSCLC): 0.189 µM
TGI (HOP-92 NSCLC): 3.99 µM
GI50 (SF-268 CNS): 2.98 µM
TGI (SF-268 CNS): 19 µM
GI50 (HCT-116 colon): 4.4 µM
TGI (HCT-116 colon): 18.8 µM
GI50 (OVCAR-8 ovarian): 9.16 µM
TGI (OVCAR-8 ovarian): 24.7 µM
GI50 (CAKI-1 renal): 1.14 µM
TGI (CAKI-1 renal): 20.6 µM

CC1/C(=N/O)CC(c2ccccc2)N(N=O)C1c1ccccc1 (stereo not given)
TGI (CCRF-CEM leukemia): > 100 µM
TGI (NCI-H226 lung): > 100 µM
TGI (M14 melanoma): > 100 µM
TGI (MALME-3M melanoma): > 100 µM
TGI (UACC-62 melanoma): > 100 µM
TGI (HOP-92 NSCLC): > 100 µM
TGI (SF-268 CNS): > 100 µM
TGI (HCT-116 colon): > 100 µM
TGI (OVCAR-8 ovarian): > 100 µM
TGI (CAKI-1 renal): > 100 µM

COC(=O)C(/C(=N\O)C(=O)Nc1ccc(Br)cc1)c1nc2ccccc2[nH]c1=O (stereo not given)
TGI (CCRF-CEM leukemia): 72.9 µM
TGI (NCI-H226 lung): 71.9 µM
TGI (M14 melanoma): > 100 µM
TGI (MALME-3M melanoma): > 100 µM
TGI (UACC-62 melanoma): 73.1 µM
TGI (HOP-92 NSCLC): 97.6 µM
TGI (SF-268 CNS): > 100 µM
TGI (HCT-116 colon): > 100 µM
TGI (OVCAR-8 ovarian): > 100 µM
TGI (CAKI-1 renal): > 100 µM

CC[C@@H](C(=O)[C@@H](C)[C@@H](O)[C@H](C)[C@@H]1O[C@@H]([C@@H](CC)C(=O)O)CC[C@@H]1C)[C@H]1O[C@]2(C=C[C@@H](O)[C@]3(CC[C@@](C)([C@H]4CC[C@](O)(CC)[C@H](C)O4)O3)O2)[C@H](C)C[C@@H]1C
GI50 (CCRF-CEM leukemia): 0.255 µM
TGI (CCRF-CEM leukemia): 12.7 µM
GI50 (NCI-H226 lung): 2.07 µM
TGI (NCI-H226 lung): 19.6 µM
GI50 (M14 melanoma): 1.39 µM
TGI (M14 melanoma): 3.05 µM
GI50 (MALME-3M melanoma): 0.416 µM
TGI (MALME-3M melanoma): 1.81 µM
GI50 (UACC-62 melanoma): 1.04 µM
TGI (UACC-62 melanoma): 2.33 µM
GI50 (HOP-92 NSCLC): 0.266 µM
TGI (HOP-92 NSCLC): 5.1 µM
GI50 (SF-268 CNS): 1.93 µM
TGI (SF-268 CNS): 24.8 µM
GI50 (HCT-116 colon): 0.63 µM
TGI (HCT-116 colon): 30.2 µM
GI50 (OVCAR-8 ovarian): 1.2 µM
TGI (OVCAR-8 ovarian): 29.5 µM
GI50 (CAKI-1 renal): 1.61 µM
TGI (CAKI-1 renal): 44.2 µM

Cc1nc2sc(C(=O)Nc3ccccc3)c(N)c2cc1C(=O)c1ccccc1
GI50 (CCRF-CEM leukemia): 1.69 µM
TGI (CCRF-CEM leukemia): > 50 µM
GI50 (NCI-H226 lung): 16.9 µM
TGI (NCI-H226 lung): > 50 µM
GI50 (M14 melanoma): 1.56 µM
TGI (M14 melanoma): > 50 µM
GI50 (MALME-3M melanoma): 5.5 µM
TGI (MALME-3M melanoma): > 50 µM
GI50 (UACC-62 melanoma): 2.12 µM
TGI (UACC-62 melanoma): > 50 µM
GI50 (HOP-92 NSCLC): 9.47 µM
TGI (HOP-92 NSCLC): > 50 µM
GI50 (SF-268 CNS): 3.5 µM
TGI (SF-268 CNS): > 50 µM
GI50 (HCT-116 colon): 1.59 µM
TGI (HCT-116 colon): > 50 µM
GI50 (OVCAR-8 ovarian): 3.86 µM
TGI (OVCAR-8 ovarian): > 50 µM
GI50 (CAKI-1 renal): 3.29 µM
TGI (CAKI-1 renal): > 50 µM

CC1=CC(=O)N2C(OC[C@@H]2c2ccccc2)O1 (stereo not given in full)
TGI (CCRF-CEM leukemia): > 100 µM
TGI (NCI-H226 lung): > 100 µM
TGI (M14 melanoma): > 100 µM
TGI (MALME-3M melanoma): > 100 µM
TGI (UACC-62 melanoma): > 100 µM
TGI (HOP-92 NSCLC): > 100 µM
TGI (SF-268 CNS): > 100 µM
TGI (HCT-116 colon): > 100 µM
TGI (OVCAR-8 ovarian): > 100 µM
TGI (CAKI-1 renal): > 100 µM
